# Results: US20040235801A1, “Therapy for stroke” (priority 2001, published 2004)
# System: C57BL/6 mice
# Experiment: Size of infarction after 90 minutes MCA occlusion (tetrazolium red)
# Assay type: in vivo, mouse
# Conditions: 24 hours after 90 min MCAO; treatment 2.5 hours after MCAO, i.p.; % of contralateral side
# Description: Adult (3-5 months old) male C57BL/6 mice were obtained from Charles River Inc. (Saint-Constant, Quebec, Canada). All experimental procedures were approved by the MUHC animal care committee according to the guidelines of the Canadian Council for Animal Care. All animals were allowed free access to water before and after surgery.
# Unilateral focal cerebral ischemia was induced by occlusion of the medial cerebral artery (MCA) in the left cerebral hemisphere during 1.5 hours. The MCA occlusions in mice is carried out on ˜30 C57BI/6 mice weighing 20-25 g from an adaptation of a method previously described in rats (Beaulieu, J. M., Kriz, J. and Julien, J. P. ,2002, Brain.Res. 946, 153-161). The animals were anesthetized by administration of ketamine/xylazine mg/kg i.m. To avoid hypothermia, the mouse body temperature was maintained at 37° C. with an infrared heating lamp and warm pad. […]
# The area of infarct was estimated in the minimum of animals (5-7 mice) from each experimental group. […] The area of infarct was estimated according to the tetrazolium red staining, calculated in arbitrary units pixels and expressed as a percentage of a total control area, the contralateral non-stroked side of the brain. […] The infarct volume was calculated by summing up the infarct area in multiple slices. […]
smiles,measurement,value
"CN(C)c1ccc(O)c2c1C[C@H]1C[C@H]3[C@H](N(C)C)C(O)=C(C(N)=O)C(=O)[C@@]3(O)C(O)=C1C2=O [Minocycline, minocycline]",% of ischemic area,38.4%
